The text below walks through data of PubChem BioAssay (NCI).

Some test systems named below: M19-MEL melanoma; UACC-257 melanoma; DLD-1 colon; RXF-631 renal; LXFL 529 NSCLC; SR leukemia; XF 498 CNS; M14 melanoma; SNB-78 CNS; NCI-H460 lung; SNB-75 CNS; KM20L2 colon; DMS 273 small cell lung; HOP-18 NSCLC; OVCAR-8 ovarian; DMS 114 small cell lung.
What all share (experiment): NCI anticancer screen, dose series, 48 h

SMILES strings stand for the structures.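 Cultured in 96-well plates, cells were exposed to test compound for 48 hours across five concentrations. At the GI50, growth is halved. TGI: total growth inhibition.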

In the case of `COC(=O)C(=O)C(C(=O)C(=O)Nc1ccccc1C(N)=O)c1nc2ccc([N+](=O)[O-])cc2[nH]c1=O` (stereo not drawn), the TGI in the test on M19-MEL melanoma, with UACC-257 melanoma, with DLD-1 colon, with RXF-631 renal, in the test on LXFL 529 NSCLC and in the test with SR leukemia was greater than 100 µM throughout. The TGI with XF 498 CNS, with M14 melanoma, in the test with SNB-78 CNS, in the test with NCI-H460 lung, with SNB-75 CNS and in the test with KM20L2 colon was greater than 100 µM each time. Further, the TGI in the test on DMS 273 small cell lung, in the test on HOP-18 NSCLC and in the test with OVCAR-8 ovarian was greater than 100 µM throughout.
Take `COc1ccc(-c2cc(=O)c3cc4c(cc3[nH]2)OCO4)c(OC)c1`: the GI50 was 26.1 µM with DMS 114 small cell lung and 42.7 µM in the test on KM20L2 colon. The TGI in the test with DMS 114 small cell lung was 87.3 µM; in the test with M19-MEL melanoma it was greater than 100 µM; with DLD-1 colon it was greater than 100 µM; in the test with LXFL 529 NSCLC, greater than 100 µM; in the test with SR leukemia, 74.2 µM; in the test with XF 498 CNS, 97.9 µM. The TGI with M14 melanoma was greater than 100 µM; in the test on SNB-78 CNS, greater than 100 µM; in the test on NCI-H460 lung it was greater than 100 µM; in the test on SNB-75 CNS it was 31.2 µM; with KM20L2 colon, greater than 100 µM; with DMS 273 small cell lung it was greater than 100 µM. Moreover, the TGI in the test on HOP-18 NSCLC and in the test with OVCAR-8 ovarian was greater than 100 µM each time.
In the case of `CNc1cccc(-c2cc(=O)c3cc4c(cc3[nH]2)OCO4)c1`, the TGI with DMS 114 small cell lung was 7.84 µM; in the test with M19-MEL melanoma it was greater than 100 µM; with UACC-257 melanoma it was greater than 100 µM; in the test with DLD-1 colon, 0.969 µM; with LXFL 529 NSCLC it was greater than 100 µM; with SR leukemia, greater than 100 µM. Besides, the TGI in the test on XF 498 CNS is greater than 100 µM; with M14 melanoma, greater than 100 µM; in the test with SNB-78 CNS it was greater than 100 µM; in the test with NCI-H460 lung it was greater than 100 µM; with DMS 273 small cell lung, 16.9 µM; in the test on HOP-18 NSCLC it was greater than 100 µM.
For the compound `COc1cc(/C=C(\C)c2ccc3c(c2)OCO3)cc(OC)c1OC`, the TGI with DMS 114 small cell lung is 87 µM; in the test on M19-MEL melanoma, greater than 100 µM; with UACC-257 melanoma, greater than 100 µM; in the test with DLD-1 colon, greater than 100 µM; with RXF-631 renal, greater than 100 µM; in the test on LXFL 529 NSCLC, 96 µM. Also, the TGI is 59.7 µM in the test on SR leukemia; greater than 100 µM in the test with M14 melanoma; greater than 100 µM in the test with SNB-78 CNS; greater than 100 µM in the test on NCI-H460 lung; 37.8 µM with SNB-75 CNS; greater than 100 µM in the test with KM20L2 colon. Further, the TGI was 96.3 µM in the test with DMS 273 small cell lung, greater than 100 µM in the test with HOP-18 NSCLC and greater than 100 µM in the test on OVCAR-8 ovarian.
